This passage reports Megakaryocyte colony count results from patent US7968542B2, “Thiophene compounds and thrombopoietin receptor activators” (Nissan Chemical Industries, Ltd., priority 2005, dated 2011).

This assay relates to Human bone marrow CD34+ cells. Description: Megakaryocyte colony stimulating activity (megakaryocyte colony forming method). Type of assay: cell-based. The settings on record: 11 days. The protocol:
The action of the compounds of Synthetic Examples 1 to 43 of the present invention and Reference Synthetic Examples 29 and 30 on the proliferation, differentiation and maturation of megakaryocyte cells was measured by the megakaryocyte colony forming method using human bone marrow cells. Human bone marrow CD34^+ cells (Cambrex Bio Science Walkersville) were incubated on 2-well chamber slide for 11 days in a CO2 incubator (5% CO2, 37° C.) using MegaCult™-C (StemCell Technologies) containing 0.1% (v/v) of the compounds of Synthetic Examples dissolved in dimethyl sulfoxide. After dehydration and fixation, the cells were stained with an anti-glycoprotein IIb/IIIa antibody in accordance with the instruction by the manufacturer. The colonies consisting of at least 8 stained megakaryocyte cells in each well were counted under a microscope. The megakaryocyte colony counts in at least 2 wells were averaged.

The compound `CC(=NNC(=O)c1ccc(C(=O)NCc2cccnc2)s1)c1csc(-c2ccc(Cl)cc2)c1O` [Synthetic Ex. 26, 5-{1-[5-(4-chlorophenyl)-4-hydroxythiophen-3-yl]ethylidenehydrazinocarbonyl}thiophene-2-carboxylic acid 3-picolylamide] returned a Megakaryocyte colony count (drug concentration 1 μg/mL) of 182.
Where the note is “drug concentration 1 μg/mL”, `CNC(=O)c1ccc(C(=O)NN=C(C)c2csc(-c3ccc(Cl)cc3)c2O)s1` [Synthetic Ex. 27, 5-{1-[5-(4-chlorophenyl)-4-hydroxythiophen-3-yl]ethylidenehydrazinocarbonyl}thiophene-2-carboxylic acid methylamide] came in with a Megakaryocyte colony count of 201.
On the same count and under the same terms, the result for `CC(=NNC(=O)c1ccc(C(=O)NC(C)C)s1)c1csc(-c2ccc(C)c(C)c2)c1O` [Synthetic Ex. 28, 5-{1-[5-(3,4-dimethylphenyl)-4-hydroxythiophen-3-yl]ethylidenehydrazinocarbonyl]thiophene-2-carboxylic acid isopropylamide] reads 105.
`CC(=NNC(=O)c1ccc(C(=O)NCc2ccccn2)s1)c1csc(-c2ccc(Cl)c(Cl)c2)c1O` [Synthetic Ex. 29, 5-{1-[5-(3,4-dichlorophenyl)-4-hydroxythiophen-3-yl]ethylidenehydrazinocarbonyl}thiophene-2-carboxylic acid 2-picolylamide] came in with a Megakaryocyte colony count (drug concentration 0.1 μg/mL) of 62.
Consider `CC(=NNC(=O)c1ccc(C(=O)NCc2ccncc2)s1)c1csc(-c2ccc(Cl)c(Cl)c2)c1O` [Synthetic Ex. 30, 5-{1-[5-(3,4-dichlorophenyl)-4-hydroxythiophen-3-yl]ethylidenehydrazinocarbonyl}thiophene-2-carboxylic acid 4-picolylamide], for which the Megakaryocyte colony count by setting is: (drug concentration 0.1 μg/mL) 145; (drug concentration 1 μg/mL) 271.
On the same counts, the results for `CC(=NNC(=O)c1ccc(C(=O)NCCc2ccncc2)s1)c1csc(-c2ccc(Cl)c(Cl)c2)c1O` [Synthetic Ex. 31, 5-{1-[5-(3,4-dichlorophenyl)-4-hydroxythiophen-3-yl]ethylidenehydrazinocarbonyl}thiophene-2-carboxylic acid 2-(pyridin-4-yl)ethylamide] are 70 and 136.
For the compound `CC(=NNC(=O)c1ccc(C(=O)NCc2ccnn2C)s1)c1csc(-c2ccc(Cl)c(Cl)c2)c1O` [Synthetic Ex. 32, 5-{1-[5-(3,4-dichlorophenyl)-4-hydroxythiophen-3-yl]ethylidenehydrazinocarbonyl}thiophene-2-carboxylic acid (1-methyl-1H-pyrazol-5-ylmethyl)amide], the Megakaryocyte colony count (drug concentration 0.1 μg/mL) turned out to be 55.
In turn, `CC(=NNC(=O)c1ccc(C(=O)NCc2cc(C)on2)s1)c1csc(-c2ccc(Cl)c(Cl)c2)c1O` [Synthetic Ex. 33, 5-{1-[5-(3,4-dichlorophenyl)-4-hydroxythiophen-3-yl]ethylidenehydrazinocarbonyl}thiophene-2-carboxylic acid (5-methylisoxazol-3-ylmethyl)amide] registered a Megakaryocyte colony count (drug concentration 0.1 μg/mL) of 53.
Same read-out and setting: then `CC(=NNC(=O)c1ccc(C(=O)NCc2cnc(C)cn2)s1)c1csc(-c2ccc(Cl)c(Cl)c2)c1O` [Synthetic Ex. 34, 5-{1-[5-(3,4-dichlorophenyl)-4-hydroxythiophen-3-yl]ethylidenehydrazinocarbonyl}thiophene-2-carboxylic acid (5-methylpyrazin-2-ylmethyl)amide], with 50.
Regarding `CC(=NNC(=O)c1ccc(C(=O)NCc2ccno2)s1)c1csc(-c2ccc(Cl)c(Cl)c2)c1O` [Synthetic Ex. 35, 5-{1-[5-(3,4-dichlorophenyl)-4-hydroxythiophen-3-yl]ethylidenehydrazinocarbonyl}thiophene-2-carboxylic acid (isoxazol-5-ylmethyl)amide], the Megakaryocyte colony count runs as follows: (drug concentration 0.1 μg/mL) 135; (drug concentration 1 μg/mL) 153.
On to `COc1cc(CNC(=O)c2ccc(C(=O)NN=C(C)c3csc(-c4ccc(Cl)c(Cl)c4)c3O)s2)on1` [Synthetic Ex. 36, 5-{1-[5-(3,4-dichlorophenyl)-4-hydroxythiophen-3-yl]ethylidenehydrazinocarbonyl}thiophene-2-carboxylic acid (3-methoxyisoxazol-5-ylmethyl)amide], for which the Megakaryocyte colony count (drug concentration 0.1 μg/mL) is listed as 102 and the Megakaryocyte colony count (drug concentration 1 μg/mL) is 135.
In the case of `CC(=NNC(=O)c1ccc(C(=O)NCc2cc(C)n(C)n2)s1)c1csc(-c2ccc(Cl)c(Cl)c2)c1O` [Synthetic Ex. 37, 5-{1-[5-(3,4-dichlorophenyl)-4-hydroxythiophen-3-yl]ethylidenehydrazinocarbonyl}thiophene-2-carboxylic acid (1,5-dimethyl-1H-pyrazol-3-ylmethyl)amide], the Megakaryocyte colony count (drug concentration 0.1 μg/mL) was 81.
Same read-out and setting: then `CC(=NNC(=O)c1ccc(C(=O)NCc2cnccn2)s1)c1csc(-c2ccc(Cl)c(Cl)c2)c1O` [Synthetic Ex. 38, 5-{1-[5-(3,4-dichlorophenyl)-4-hydroxythiophen-3-yl]ethylidenehydrazinocarbonyl}thiophene-2-carboxylic acid (pyrazin-2-ylmethyl)amide], with 66; and `CC(=NNC(=O)c1ccc(C(=O)NCc2cc[n+]([O-])cc2)s1)c1csc(-c2ccc(Cl)c(Cl)c2)c1O` [Synthetic Ex. 39, 4-[{5-(2-[1-{5-(3,4-dichlorophenyl)-4-hydroxythiophen-3-yl}ethylidene]hydrazinocarbonyl)thiophene-2-carboxamido}methyl]pyridine 1-oxide], with 86.
Same read-out and setting: the result for `CC(=NNC(=O)c1ccc(C(=O)NCCCc2ccncc2)s1)c1csc(-c2ccc(Cl)c(Cl)c2)c1O` [Synthetic Ex. 40, 5-{1-[5-(3,4-dichlorophenyl)-4-hydroxythiophen-3-yl]ethylidenehydrazinocarbonyl}thiophene-2-carboxylic acid 3-(pyridin-4-yl)propylamide] reads 70.
Same read-out and setting: then `CC(=NNC(=O)c1ccc(C(=O)NCc2cncn2C)s1)c1csc(-c2ccc(C(F)(F)F)cc2)c1O` [Synthetic Ex. 41, 5-{1-[5-(4-trifluoromethylphenyl)-4-hydroxythiophen-3-yl]ethylidenehydrazinocarbonyl}thiophene-2-carboxylic acid (1-methyl-1H-imidazol-5-ylmethyl)amide], with 41.
For the compound `CC(=NNC(=O)c1ccc(C(=O)N2CCC(O)C2)s1)c1csc(-c2ccc(Cl)c(Cl)c2)c1O` (stereo not shown) [Synthetic Ex. 42, 5-(3-hydroxypyrrolidine-1-carbonyl)thiophene-2-carboxylic acid {1-[5-(3,4-dichlorophenyl)-4-hydroxythiophen-3-yl]ethylidene}hydrazide], the Megakaryocyte colony count (drug concentration 0.1 μg/mL) was 90.
On the same count and under the same terms, then `CC(=NNC(=O)c1ccc(C(=O)N2CCC(O)C2)s1)c1csc(-c2ccc(C(F)(F)F)cc2)c1O` (stereo not shown) [Synthetic Ex. 43, 5-(3-hydroxypyrrolidine-1-carbonyl)thiophene-2-carboxylic acid {1-[5-(4-trifluoromethylphenyl)-4-hydroxythiophen-3-yl]ethylidene}hydrazide], with 109.
